Assay results taken from patent publication US12655116B2, “Substituted isophthalic acid diamides” (Bayer Aktiengesellschaft, priority 2020, dated 2026).

Tests used:
[1] = tested on: MATIN; test: Post-emergence herbicidal action against MATIN; type: in vivo, Matricaria inodora
In short: (§1)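 Foliar application at one-leaf stage of formulated test compounds, aqueous spray at 600–800 l/ha with 0.2% wetting agent. Greenhouse, optimal conditions, ~3 weeks; damage scored visually in % relative to untreated plants.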

[2] = tested on: VERPE; test: Post-emergence herbicidal action against VERPE; type: in vivo, Veronica persica; settings: 20 g/ha
In short: as §1

[3] = tested on: ABUTH; test: Post-emergence herbicidal action against ABUTH; type: in vivo, Abutilon theophrasti; settings: visual assessment about 3 weeks after treatment vs untreated controls
In short: as §1

[4] = tested on: ABUTH; test: Pre-emergence herbicidal action against ABUTH; type: in vivo, Abutilon theophrasti
In short: (§2)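 Greenhouse pots of sandy loam held seeds covered with soil, onto which the compound was applied before emergence. An aqueous suspension or emulsion of WP or EC was used at 600 to 800 l/ha with 0.2% wetting agent. Percent damage was judged visually at 3 weeks.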

[5] = tested on: VIOTR; test: Pre-emergence herbicidal action against VIOTR; type: in vivo, Viola tricolor
In short: as §2

[6] = tested on: ALOMY; test: Post-emergence herbicidal action against ALOMY; type: in vivo, Alopecurus myosuroides; settings: visual assessment about 3 weeks after treatment vs untreated controls
In short: as §1

[7] = tested on: AMARE; test: Pre-emergence herbicidal action against AMARE; type: in vivo, Amaranthus retroflexus
In short: as §2

[8] = tested on: SETVI; test: Pre-emergence herbicidal action against SETVI; type: in vivo, Setaria viridis
In short: as §2

[9] = tested on: MATIN; test: Pre-emergence herbicidal action against MATIN; type: in vivo, Matricaria inodora
In short: as §2

[10] = tested on: POLCO; test: Pre-emergence herbicidal action against POLCO; type: in vivo, Polygonum convolvulus; settings: dosage 80 g/ha
In short: as §2

[11] = tested on: PHBPU; test: Post-emergence herbicidal action against PHBPU; type: in vivo, Pharbitis purpurea
In short: as §1

[12] = tested on: ECHCG; test: Pre-emergence herbicidal action against ECHCG; type: in vivo, Echinochloa crus-galli
In short: as §2

[13] = tested on: SETVI; test: Post-emergence herbicidal action against SETVI; type: in vivo, Setaria viridis
In short: as §1

[14] = tested on: VIOTR; test: Post-emergence herbicidal action against VIOTR; type: in vivo, Viola tricolor
In short: as §1

[15] = tested on: AMARE; test: Post-emergence herbicidal action against AMARE; type: in vivo, Amaranthus retroflexus; settings: 20 g/ha, visual assessment about 3 weeks after treatment, 100% = plants have died, 0% = like control plants
In short: as §1

[16] = tested on: AVEFA; test: Post-emergence herbicidal action against AVEFA; type: in vivo, Avena fatua; settings: 20 g/ha, visual assessment about 3 weeks after treatment, 100% = plants have died, 0% = like control plants
In short: as §1

[17] = tested on: ECHCG; test: Post-emergence herbicidal action against ECHCG; type: in vivo, Echinochloa crus-galli
In short: as §1

[18] = tested on: VERPE; test: Pre-emergence herbicidal action against VERPE; type: in vivo, Veronica persica; settings: dosage 80 g/ha
In short: as §2

[19] = tested on: AVEFA; test: Pre-emergence herbicidal action against AVEFA; type: in vivo, Avena fatua; settings: Avena fatua, 504 h, pre-emergence
In short: as §2

[20] = tested on: ALOMY; test: Pre-emergence herbicidal action against ALOMY; type: in vivo, Alopecurus myosuroides; settings: Alopecurus myosuroides, 504 h; 80 g/ha, pre-emergence, scored visually after 3 weeks vs untreated controls (100% = plants have died, 0% = like control plants)
In short: as §2

[21] = tested on: DIGSA; test: Post-emergence herbicidal action against DIGSA; type: in vivo, Digitaria sanguinalis; settings: Digitaria sanguinalis, 504 h
In short: as §1

[22] = tested on: DIGSA; test: Pre-emergence herbicidal action against DIGSA; type: in vivo, Digitaria sanguinalis; settings: Digitaria sanguinalis, 504 h, dosage 80 g/ha
In short: as §2

[23] = 80 g/ha, scored visually after 3 weeks vs untreated controls (100% = plants have died, 0% = like control plants)
[24] = Tripleurospermum inodorum, 504 h, dosage 20 g/ha
[25] = Setaria viridis, 504 h, dosage 20 g/ha

## CCn1nnnc1NC(=O)c1ccc(C(F)(F)F)c(C(=O)NC(C)C2CC2)c1SC (stereo not drawn) [Example 2-350]
[1]; dosage 5 g/ha
  Post-emergence action against MATIN in %: 80%
[1]; dosage 20 g/ha
  Post-emergence action against MATIN in %: 90%
[2]
  Post-emergence action against VERPE in %: 80%
[3]; dosage 20 g/ha
  Post-emergence action against ABUTH in %: 80%
[4]; [23]
  Pre-emergence action against ABUTH (herbicidal activity): 100%
[4]; dosage 20 g/ha, scored visually after 3 weeks vs untreated controls, 100% = plants have died, 0% = like control plants
  Pre-emergence action against ABUTH (herbicidal activity in percent): 100%
[5]; dosage 20 g/ha
  Pre-emergence action against VIOTR in %: 100%
[5]; dosage 80 g/ha
  Pre-emergence action against VIOTR in %: 100%
[6]; dosage 20 g/ha
  Post-emergence action against ALOMY in %: 80%
[7]; 20 g/ha, scored visually after 3 weeks vs untreated controls, 100% = plants have died, 0% = like control plants
  Pre-emergence action against AMARE in %: 100%
[7]; [23]
  Pre-emergence action against AMARE in %: 100%
[8]; dosage 80 g/ha
  Pre-emergence action against SETVI in %: 100%
[9]; dosage 20 g/ha
  Pre-emergence action against MATIN in %: 100%
[9]; dosage 80 g/ha
  Pre-emergence action against MATIN in %: 100%
[10]
  Pre-emergence action against POLCO in %: 100%
[11]; dosage 5 g/ha
  Post-emergence action against PHBPU in %: 80%
[11]; dosage 20 g/ha
  Post-emergence action against PHBPU in %: 80%
[12]; 20 g/ha
  Pre-emergence action against ECHCG in %: 80%
[12]; 80 g/ha
  Pre-emergence action against ECHCG in %: 100%
[13]; dosage 20 g/ha
  Post-emergence action against SETVI in %: 100%
[14]; 5 g/ha
  Post-emergence action against VIOTR in %: 100%
[14]; 20 g/ha
  Post-emergence action against VIOTR in %: 100%
[15]
  Post-emergence action at 20 g/ha against AMARE in %: 100%
[16]
  Post-emergence action at 20 g/ha against AVEFA in %: 90%
[17]; dosage 20 g/ha
  Post-emergence action against ECHCG in %: 100%
[18]
  Pre-emergence action against VERPE in %: 100%

## CCNC(=O)c1c(C(F)F)ccc(C(=O)Nc2nnnn2C)c1Br [Example 1-226]
[19]; 80 g/ha
  pest or weed control at 80 g/ha: 90%
[19]; 20 g/ha, scored visually after 3 weeks, 100% = plants have died, 0% = like control plants
  pest or weed control at 20 g/ha: 80%
[1]; [24]
  pest or weed control at 20 g/ha: 80%
[2]; Veronica persica, 504 h
  pest or weed control at 20 g/ha: 90%
[3]; Abutilon theophrasti, 504 h, dosage 5 g/ha
  pest or weed control at 5 g/ha: 90%
[3]; Abutilon theophrasti, 504 h, dosage 20 g/ha
  pest or weed control at 20 g/ha: 90%
[4]; Abutilon theophrasti, 504 h, 80 g/ha, scored visually after 3 weeks vs untreated controls (100% = plants have died, 0% = like control plants)
  pest or weed control at 80 g/ha: 90%
[5]; Viola tricolor, 504 h, dosage 20 g/ha
  pest or weed control at 20 g/ha: 80%
[5]; Viola tricolor, 504 h, dosage 80 g/ha
  pest or weed control at 80 g/ha: 100%
[6]; Alopecurus myosuroides, 504 h, dosage 5 g/ha
  pest or weed control at 5 g/ha: 80%
[6]; Alopecurus myosuroides, 504 h, dosage 20 g/ha
  pest or weed control at 20 g/ha: 100%
[7]; Amaranthus retroflexus, 504 h, 20 g/ha, scored visually after 3 weeks vs untreated controls, 100% = plants have died, 0% = like control plants
  pest or weed control at 20 g/ha: 100%
[7]; Amaranthus retroflexus, 504 h, 80 g/ha, scored visually after 3 weeks vs untreated controls, 100% = plants have died, 0% = like control plants
  pest or weed control at 80 g/ha: 100%
[8]; [25]
  pest or weed control at 20 g/ha: 100%
[8]; Setaria viridis, 504 h, dosage 80 g/ha
  pest or weed control at 80 g/ha: 100%
[9]; [24]
  pest or weed control at 20 g/ha: 100%
[9]; Tripleurospermum inodorum, 504 h, dosage 80 g/ha
  pest or weed control at 80 g/ha: 100%
[10]; Fallopia convolvulus, 504 h
  pest or weed control at 80 g/ha: 90%
[11]; Ipomoea purpurea, 504 h, dosage 20 g/ha
  pest or weed control at 20 g/ha: 80%
[20]
  pest or weed control at 80 g/ha: 90%
[12]; Echinochloa crus-galli, 504 h, 20 g/ha
  pest or weed control at 20 g/ha: 80%
[12]; Echinochloa crus-galli, 504 h, 80 g/ha
  pest or weed control at 80 g/ha: 100%
[13]; Setaria viridis, 504 h, dosage 5 g/ha
  pest or weed control at 5 g/ha: 100%
[13]; [25]
  pest or weed control at 20 g/ha: 100%
[14]; Viola tricolor, 504 h, 5 g/ha
  pest or weed control at 5 g/ha: 100%
[14]; Viola tricolor, 504 h, 20 g/ha
  pest or weed control at 20 g/ha: 100%
[15]; Amaranthus retroflexus, 504 h
  pest or weed control at 20 g/ha: 100%
[16]; Avena fatua, 504 h
  pest or weed control at 20 g/ha: 80%
[21]; 5 g/ha
  pest or weed control at 5 g/ha: 90%
[21]; 20 g/ha
  pest or weed control at 20 g/ha: 100%
[17]; Echinochloa crus-galli, 504 h, dosage 5 g/ha
  pest or weed control at 5 g/ha: 100%
[17]; Echinochloa crus-galli, 504 h, dosage 20 g/ha
  pest or weed control at 20 g/ha: 100%
[18]; Veronica persica, 504 h
  pest or weed control at 80 g/ha: 90%
[22]
  pest or weed control at 80 g/ha: 90%
